Results: patent US7030142B1, “Methods for the treatment of neuroleptic and related disorders using ziprasidone metabolites” (Sepracor Inc., priority 1999, dated 2006)
Counter-ions that a name gives are not always drawn.

Assays:
D2 dopamine receptors = D2 dopamine receptors (Homo sapiens, UniProt P14416); assay: Competition radioreceptor assay, D2 dopamine receptors; conditions: 90 minute incubation; (+)-butaclamol (0.25 μM) defining nonspecific binding; read-out: KD of radioligand
Protocol: Competition radioreceptor assays are used to determine the affinity (IC50's) of the phenylaminotetralins and other reference ligands for D2 dopamine receptors. […] Jarvie, J. R. et al., Eur. J. Pharmacol., 144:163–171 (1987) and Kula, N. S. et al., Dev. Brain Res., 66:286–287 (1992). […] Test agents are evaluated by running, in duplicate, six or more concentrations that bracketed the IC50. Three replications are performed, and the resulting data are analyzed using the ALLFIT program.

5-HT1D = 5-HT1D (Homo sapiens, UniProt P28221); conditions: Seeger et al. 1995; cited from earlier work
5-HT2 receptor = conditions: Seeger et al. 1995; cited from earlier work
dopamine D2 receptor = dopamine D2 receptor (Homo sapiens, UniProt P14416); conditions: Seeger et al. 1995; cited from earlier work
5-HT2C = target: T1, 5-HT2C (Homo sapiens, UniProt P28335); conditions: Seeger et al. 1995; cited from earlier work
T1 sequence (P28335 33-458): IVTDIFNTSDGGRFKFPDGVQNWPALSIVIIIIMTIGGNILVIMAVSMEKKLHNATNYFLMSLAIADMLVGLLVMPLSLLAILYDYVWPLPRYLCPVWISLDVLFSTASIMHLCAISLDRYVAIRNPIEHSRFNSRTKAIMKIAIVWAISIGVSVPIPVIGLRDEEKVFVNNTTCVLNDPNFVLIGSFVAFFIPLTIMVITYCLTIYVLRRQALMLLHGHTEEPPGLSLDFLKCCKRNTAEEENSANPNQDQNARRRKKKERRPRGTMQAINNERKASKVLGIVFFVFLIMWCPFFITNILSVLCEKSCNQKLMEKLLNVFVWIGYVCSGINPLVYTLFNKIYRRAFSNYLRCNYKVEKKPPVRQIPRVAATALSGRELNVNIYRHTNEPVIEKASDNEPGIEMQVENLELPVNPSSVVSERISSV

5-HT1A = target: T2, 5-HT1A (Homo sapiens, UniProt P08908); conditions: Seeger et al. 1995; cited from earlier work
T2 sequence (P08908 1-422): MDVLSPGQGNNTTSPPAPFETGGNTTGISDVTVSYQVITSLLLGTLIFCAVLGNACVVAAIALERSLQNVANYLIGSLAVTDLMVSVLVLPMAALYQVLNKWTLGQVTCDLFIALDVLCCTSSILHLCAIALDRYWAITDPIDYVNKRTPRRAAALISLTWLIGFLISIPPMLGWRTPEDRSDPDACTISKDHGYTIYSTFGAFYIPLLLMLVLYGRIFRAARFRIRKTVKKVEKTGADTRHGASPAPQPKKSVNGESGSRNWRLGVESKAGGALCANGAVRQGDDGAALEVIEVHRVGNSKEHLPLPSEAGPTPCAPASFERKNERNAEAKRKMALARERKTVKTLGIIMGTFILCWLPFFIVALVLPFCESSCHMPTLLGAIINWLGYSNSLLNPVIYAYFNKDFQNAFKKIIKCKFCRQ

[1] = ziprasidone administered orally; cited from earlier work

Chain of 5-HT1D (P28221 whole entry, species assumed): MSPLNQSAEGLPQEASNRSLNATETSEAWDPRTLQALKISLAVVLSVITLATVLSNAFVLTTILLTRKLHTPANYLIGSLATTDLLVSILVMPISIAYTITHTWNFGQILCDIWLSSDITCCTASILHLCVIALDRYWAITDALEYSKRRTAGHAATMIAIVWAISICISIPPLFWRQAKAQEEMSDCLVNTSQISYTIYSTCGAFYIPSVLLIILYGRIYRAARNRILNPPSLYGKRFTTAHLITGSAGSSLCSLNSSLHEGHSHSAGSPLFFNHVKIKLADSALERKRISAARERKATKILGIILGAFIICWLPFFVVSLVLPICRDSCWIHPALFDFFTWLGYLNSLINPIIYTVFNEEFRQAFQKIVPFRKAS
Chain of dopamine D2 receptor (P14416 whole entry, species assumed): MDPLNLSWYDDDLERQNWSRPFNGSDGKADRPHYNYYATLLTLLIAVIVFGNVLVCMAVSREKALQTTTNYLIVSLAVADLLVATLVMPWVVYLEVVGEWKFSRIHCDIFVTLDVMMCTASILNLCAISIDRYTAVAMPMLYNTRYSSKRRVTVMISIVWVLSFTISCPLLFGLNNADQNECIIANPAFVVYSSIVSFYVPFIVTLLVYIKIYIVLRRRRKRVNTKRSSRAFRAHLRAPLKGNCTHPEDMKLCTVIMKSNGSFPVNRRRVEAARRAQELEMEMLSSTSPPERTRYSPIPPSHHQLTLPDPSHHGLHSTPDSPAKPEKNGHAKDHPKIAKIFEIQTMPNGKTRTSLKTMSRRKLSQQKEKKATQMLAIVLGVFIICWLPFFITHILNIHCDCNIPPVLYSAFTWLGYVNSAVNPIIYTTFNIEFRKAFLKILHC
Chain of D2 dopamine receptors (P14416 whole entry): as the sequence (P14416 whole entry, species assumed) above

Compound: CN1CCc2cc(Cl)c(O)cc2C(c2ccccc2)C1 (centres unmarked) [[^3H]SCH23390]
- Kd (D2 dopamine receptors): 0.34 nM

Compound: O=C1Cc2cc(CCN3CCN(c4nsc5ccccc45)CC3)c(Cl)cc2N1 [ziprasidone, (5-[2-{4-(1,2-benzisothiazol-3-yl)piperizin-1-yl}ethyl]-6-chlorooxindole)hydrochloride hydrate]
- affinity for 5-HT1D receptor subtype (5-HT1D): high affinity
- 5-HT2 receptor antagonist (5-HT2 receptor): highly potent and selective
- dopamine D2 receptor antagonist (dopamine D2 receptor): highly potent and selective
- affinity for 5-HT2C receptor subtype (5-HT2C): high affinity
- affinity for 5-HT1A receptor subtype (5-HT1A): high affinity

Compound: O=C1Cc2cc(CCN3CCN(C4=NS(=O)(=O)c5ccccc54)CC3)c(Cl)cc2N1 [ZIP-SO2, ziprasidone sulfone]
- share of ziprasidone metabolites found in human urine [1]: less than 3%

Compound: O=C1Cc2cc(CCN3CCN(c4n[s+]([O-])c5ccccc45)CC3)c(Cl)cc2N1 (centres unmarked) [ZIP-SO, ziprasidone sulfoxide]
- share of ziprasidone metabolites found in human urine [1]: less than 10%
